Results reported in patent US20200199127A1, “(HETERO)ARYLALKYLAMINO-PYRAZOLOPYRIDAZINE DERIVATIVES HAVING MULTIMODAL ACTIVITY AGAINST PAIN” (priority 2017, published 2020).

Assays:
[1] = target: Human norepinephrine transporter (NET) (Homo sapiens, UniProt P23975); experiment: Binding assay to human norepinephrine transporter (NET), [3H]-Nisoxetin; conditions: human NET enriched membranes, 5 nM [3H]-Nisoxetin; Ki as class symbol
Procedure: Binding Assay to Human Norepinephrine Transporter (NET).
Human norepinephrine transporter (NET) enriched membranes (5 μg) were incubated with 5 nM of radiolabeled [3H]-Nisoxetin in assay buffer containing 50 mM Tris-HCl, 120 mM NaCl, 5 mM KCl, pH 7.4.
NSB (non specific binding) was measured by adding 10 μM of desipramine. The binding of the test compound was measured at five different concentrations.. After 60 min incubation at 4° C., binding reaction was terminated by filtering through Multiscreen GF/C (Millipore) presoaked in 0.5% polyethyleneimine in Vacuum Manifold Station, followed by 3 washes with ice-cold filtration buffer containing 50 mM Tris-HCl, 0.9% NaCl, pH 7.4.
Filter plates were dried at 60° C. for 1 hour and 30 μl of scintillation cocktail were added to each well before radioactivity reading.

[2] = target: Human α2δ-1 subunit of Cav2.2 calcium channel (Homo sapiens, UniProt P54289); experiment: Human α2δ-1 subunit of Cav2.2 calcium channel assay, [3H]-Gabapentin binding; conditions: human α2δ-1 enriched membranes, 15 nM [3H]-Gabapentin; Ki as class symbol
Procedure: Human α2δ-1 Subunit of Cav2.2 Calcium Channel Assay
Human α2δ-1 enriched membranes (2.5 μg) were incubated with 15 nM of radiolabeled [3H]-Gabapentin in assay buffer containing Hepes-KOH 10 mM, pH 7.4. NSB (non specific binding) was measured by adding 10 μM pregabalin. The binding of the test compound was measured at five different concentrations. After 60 min incubation at 27° C., binding reaction was terminated by filtering through Multiscreen GF/C (Millipore) presoaked in 0.5% polyethyleneimine in Vacuum Manifold Station, followed by 3 washes with ice-cold filtration buffer containing 50 mM Tris-HCl, pH 7.4. Filter plates were dried at 60° C. for 1 hour and 30 μl of scintillation cocktail were added to each well before radioactivity reading. Readings were performed in a Trilux 1450 Microbeta radioactive counter (Perkin Elmer).

Sequence of Human α2δ-1 subunit of Cav2.2 calcium channel (P54289 25-1103): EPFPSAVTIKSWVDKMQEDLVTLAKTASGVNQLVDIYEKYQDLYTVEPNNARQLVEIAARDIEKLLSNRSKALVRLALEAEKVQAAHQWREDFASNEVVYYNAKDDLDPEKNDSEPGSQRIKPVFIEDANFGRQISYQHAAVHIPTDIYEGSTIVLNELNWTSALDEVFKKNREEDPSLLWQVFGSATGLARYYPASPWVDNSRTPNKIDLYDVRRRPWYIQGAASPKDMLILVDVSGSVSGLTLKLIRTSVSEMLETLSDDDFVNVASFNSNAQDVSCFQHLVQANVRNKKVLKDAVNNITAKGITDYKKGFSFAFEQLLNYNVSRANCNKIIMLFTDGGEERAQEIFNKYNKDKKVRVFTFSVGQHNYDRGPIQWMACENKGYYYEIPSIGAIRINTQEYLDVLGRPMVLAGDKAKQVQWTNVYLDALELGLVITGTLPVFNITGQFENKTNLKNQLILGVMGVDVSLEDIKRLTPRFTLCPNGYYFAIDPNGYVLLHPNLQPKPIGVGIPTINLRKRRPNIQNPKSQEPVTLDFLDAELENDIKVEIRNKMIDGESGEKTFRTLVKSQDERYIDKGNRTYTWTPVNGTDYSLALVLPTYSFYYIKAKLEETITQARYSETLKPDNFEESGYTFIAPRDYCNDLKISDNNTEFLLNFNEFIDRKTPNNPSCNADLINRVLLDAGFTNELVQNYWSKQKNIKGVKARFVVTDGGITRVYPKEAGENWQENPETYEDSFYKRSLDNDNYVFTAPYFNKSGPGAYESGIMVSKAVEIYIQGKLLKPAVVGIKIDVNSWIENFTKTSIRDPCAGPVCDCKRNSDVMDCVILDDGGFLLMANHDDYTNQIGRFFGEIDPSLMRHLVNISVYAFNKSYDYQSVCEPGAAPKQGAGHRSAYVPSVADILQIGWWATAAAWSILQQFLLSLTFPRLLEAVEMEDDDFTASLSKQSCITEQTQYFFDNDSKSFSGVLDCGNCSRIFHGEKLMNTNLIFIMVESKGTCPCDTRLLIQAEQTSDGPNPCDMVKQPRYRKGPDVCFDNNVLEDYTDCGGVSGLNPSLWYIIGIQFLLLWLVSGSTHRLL
Sequence of Human norepinephrine transporter (NET) (P23975 whole entry): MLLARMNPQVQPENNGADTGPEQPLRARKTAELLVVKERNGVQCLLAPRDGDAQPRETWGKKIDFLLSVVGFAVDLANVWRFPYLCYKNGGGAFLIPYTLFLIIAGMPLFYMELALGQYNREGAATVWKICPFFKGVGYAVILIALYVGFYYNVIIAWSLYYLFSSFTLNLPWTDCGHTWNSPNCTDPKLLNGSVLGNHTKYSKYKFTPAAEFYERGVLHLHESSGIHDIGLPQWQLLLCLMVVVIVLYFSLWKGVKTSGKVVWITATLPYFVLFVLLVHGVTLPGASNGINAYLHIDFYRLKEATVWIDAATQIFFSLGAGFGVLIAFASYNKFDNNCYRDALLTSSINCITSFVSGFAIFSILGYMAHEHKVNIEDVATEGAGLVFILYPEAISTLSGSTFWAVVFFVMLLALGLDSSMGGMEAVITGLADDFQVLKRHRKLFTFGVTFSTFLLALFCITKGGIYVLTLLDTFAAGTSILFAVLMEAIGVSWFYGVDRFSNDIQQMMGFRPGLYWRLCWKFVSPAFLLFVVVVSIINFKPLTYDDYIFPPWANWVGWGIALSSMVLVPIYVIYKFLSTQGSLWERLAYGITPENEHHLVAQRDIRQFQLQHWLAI

Row | Structure (SMILES) | Ki [1] [nM] | Ki [2] [nM]
1 | CCOc1ccc(-n2nc3c(NCC(CO)Cc4ccccc4)nnc(C)c3c2C)c(F)c1 (stereo not drawn) [Example 12, 2-benzyl-3-((2-(4-ethoxy-2-fluorophenyl)-3,4-dimethyl-2H-pyrazolo[3,4-d]pyridazin-7-yl)amino)propan-1-ol] | 100 to 500 | 100 to 500
2 | CCOc1ccc(-n2nc3c(N(C)Cc4ncccc4C)nnc(C)c3c2C)c(F)c1 [Example 32, 2-(4-ethoxy-2-fluorophenyl)-N,3,4-trimethyl-N-((3-methylpyridin-2-yl)methyl)-2H-pyrazolo[3,4-d]pyridazin-7-amine] | 100 to 500 | 100 to 500
3 | CCOc1ccc(-n2nc3c(N(C)Cc4ccncc4)nnc(C)c3c2C)c(F)c1 [Example 11, 2-(4-ethoxy-2-fluorophenyl)-N,3,4-trimethyl-N-(pyridin-4-ylmethyl)-2H-pyrazolo[3,4-d]pyridazin-7-amine] | > 1000 | 100 to 500
4 | CCOc1ccc(-n2nc3c(N(C)Cc4cccc(C)n4)nnc(C)c3c2C)c(F)c1 [Example 1, 2-(4-Ethoxy-2-fluorophenyl)-N,3,4-trimethyl-N-((6-methylpyridin-2-yl)methyl)-2H-pyrazolo[3,4-d]pyridazin-7-amine] | 500 to 1000 | 100 to 500
5 | CCOc1ccc(-n2nc3c(N(C)Cc4ncccn4)nnc(C)c3c2C)c(F)c1 [Example 26, 2-(4-ethoxy-2-fluorophenyl)-N,3,4-trimethyl-N-(pyrimidin-2-ylmethyl)-2H-pyrazolo[3,4-d]pyridazin-7-amine] | > 1000 | 100 to 500
6 | CCOc1ccc(-n2nc3c(N(CCO)Cc4ccccc4)nnc(C)c3c2C)c(F)c1 [Example 55, 2-(benzyl(2-(4-ethoxy-2-fluorophenyl)-3,4-dimethyl-2H-pyrazolo[3,4-d]pyridazin-7-yl)amino)ethanol] | 500 to 1000 | 
7 | CCOc1ccc(-n2nc3c(N(C)Cc4cccc(O)c4)nnc(C)c3c2C)c(F)c1 [Example 17, 3-(((2-(4-ethoxy-2-fluorophenyl)-3,4-dimethyl-2H-pyrazolo[3,4-d]pyridazin-7-yl)(methyl)amino)methyl)phenol] | 100 to 500 | 
8 | CCOc1ccc(-n2nc3c(N(C)Cc4ccccc4CO)nnc(C)c3c2C)c(F)c1 [Example 41, (2-(((2-(4-ethoxy-2-fluorophenyl)-3,4-dimethyl-2H-pyrazolo[3,4-d]pyridazin-7-yl)(methyl)amino)methyl)phenyl)meth-anol] | 100 to 500 | 
9 | CCOc1ccc(-n2nc3c(N(C)CC[C@@H](O)c4ccccc4)nnc(C)c3c2C)c(F)c1 [Example 50, (R)-3-((2-(4-ethoxy-2-fluorophenyl)-3,4-dimethyl-2H-pyrazolo[3,4-d]pyridazin-7-yl)(methyl)amino)-1-phenylpropan-1-ol] | 100 to 500 | 
10 | CCOc1ccc(-n2nc3c(N(C)CCC(O)c4ccccc4)nnc(C)c3c2C)c(F)c1 (stereo not drawn) [Example 2, 3-((2-(4-ethoxy-2-fluorophenyl)-3,4-dimethyl-2H-pyrazolo[3,4-d]pyridazin-7-yl)(methyl)amino)-1-phenylpropan-1-ol] | < 100 | 
11 | CCOc1ccc(-n2nc3c(N(C)Cc4ccccc4)nnc(C)c3c2C)c(F)c1 [Example 6, N-benzyl-2-(4-ethoxy-2-fluorophenyl)-N,3,4-trimethyl-2H-pyrazolo[3,4-d]pyridazin-7-amine] | < 100 | 
12 | CCOc1ccc(-n2nc3c(N(C)CC[C@H](O)c4ccccc4)nnc(C)c3c2C)c(F)c1 [Example 49, (S)-3-((2-(4-Ethoxy-2-fluorophenyl)-3,4-dimethyl-2H-pyrazolo[3,4-d]pyridazin-7-yl)(methyl)amino)-1-phenylpropan-1-ol] | < 100 | 
13 | CCOc1ccc(-n2nc3c(NCC[C@@H](O)c4ccccc4)nnc(C)c3c2C)c(F)c1 [Example 51, (R)-3-((2-(4-Ethoxy-2-fluorophenyl)-3,4-dimethyl-2H-pyrazolo[3,4-d]pyridazin-7-yl)amino)-1-phenylpropan-1-ol] | > 1000 | 
14 | CCOc1ccc(-n2nc3c(N(C)Cc4ccccn4)nnc(C)c3c2C)cc1 [Example 46, 2-(4-ethoxyphenyl)-N,3,4-trimethyl-N-(pyridin-2-ylmethyl)-2H-pyrazolo[3,4-d]pyridazin-7-amine] | 500 to 1000 | 

Further lines, results first:

Row | Ki [1] [nM] | Ki [2] [nM] | Structure (SMILES)
15 | > 1000 | 500 to 5000 | CCOc1ccc(-n2nc3c(N(C)Cc4ccon4)nnc(C)c3c2C)c(F)c1 [Example 27, 2-(4-ethoxy-2-fluorophenyl)-N-(isoxazol-3-ylmethyl)-N,3,4-trimethyl-2H-pyrazolo[3,4-d]pyridazin-7-amine]
16 | > 1000 | 100 to 500 | CCOc1ccc(-n2nc3c(NCc4ccccn4)nnc(C)c3c2C)c(F)c1 [Example 14, 2-(4-ethoxy-2-fluorophenyl)-3,4-dimethyl-N-(pyridin-2-ylmethyl)-2H-pyrazolo[3,4-d]pyridazin-7-amine]
17 | > 1000 | 500 to 5000 | CCOc1ccc(-n2nc3c(N(C)C(CCO)c4ccccc4)nnc(C)c3c2C)c(F)c1 (stereo not drawn) [Example 54, 3-((2-(4-ethoxy-2-fluorophenyl)-3,4-dimethyl-2H-pyrazolo[3,4-d]pyridazin-7-yl)(methyl)amino)-3-phenylpropan-1-ol]
18 | > 1000 | 100 to 500 | CCOc1ccc(-n2nc3c(N(C)Cc4ccc(C)cn4)nnc(C)c3c2C)c(F)c1 [Example 34, 2-(4-ethoxy-2-fluorophenyl)-N,3,4-trimethyl-N-((5-methylpyridin-2-yl)methyl)-2H-pyrazolo[3,4-d]pyridazin-7-amine]
19 | > 1000 | 100 to 500 | CCOc1ccc(-n2nc3c(NC(CCO)c4ccccc4)nnc(C)c3c2C)c(F)c1 (stereo not drawn) [Example 8, 3-((2-(4-ethoxy-2-fluorophenyl)-3,4-dimethyl-2H-pyrazolo[3,4-d]pyridazin-7-yl)amino)-3-phenylpropan-1-ol]
20 | 100 to 500 | 100 to 500 | CCOc1ccc(-n2nc3c(NCCC(O)c4ccccc4)nnc(C)c3c2C)c(F)c1 (stereo not drawn) [Example 7, 3-((2-(4-ethoxy-2-fluorophenyl)-3,4-dimethyl-2H-pyrazolo[3,4-d]pyridazin-7-yl)amino)-1-phenylpropan-1-ol]
21 | 100 to 500 |  | CCOc1ccc(-n2nc3c(NCC[C@H](O)c4ccccc4)nnc(C)c3c2C)c(F)c1 [Example 52, (S)-3-((2-(4-ethoxy-2-fluorophenyl)-3,4-dimethyl-2H-pyrazolo[3,4-d]pyridazin-7-yl)amino)-1-phenylpropan-1-ol]
22 | 500 to 1000 |  | CCOc1ccc(-n2nc3c(N(C)Cc4cc(C)ccn4)nnc(C)c3c2C)c(F)c1 [Example 44, 2-(4-ethoxy-2-fluorophenyl)-N,3,4-trimethyl-N-((4-methylpyridin-2-yl)methyl)-2H-pyrazolo[3,4-d]pyridazin-7-amine]
23 | < 100 |  | CCOc1ccc(-n2nc3c(N(C)Cc4ccc(O)cc4)nnc(C)c3c2C)c(F)c1 [Example 18, 4-(((2-(4-ethoxy-2-fluorophenyl)-3,4-dimethyl-2H-pyrazolo[3,4-d]pyridazin-7-yl)(methyl)amino)methyl)phenol]
24 | 100 to 500 |  | CCOc1ccc(-n2nc3c(N(C)Cc4ccc(OC)cn4)nnc(C)c3c2C)c(F)c1 [Example 38, 2-(4-ethoxy-2-fluorophenyl)-N-((5-methoxypyridin-2-yl)methyl)-N,3,4-trimethyl-2H-pyrazolo[3,4-d]pyridazin-7-amine]
25 | > 1000 |  | Cc1nnc(N(C)Cc2ccccn2)c2nn(-c3ccc(Cl)cc3OC(F)(F)F)c(C)c12 [Example 42, 2-(4-chloro-2-(trifluoromethoxy)phenyl)-N,3,4-trimethyl-N-(pyridin-2-ylmethyl)-2H-pyrazolo[3,4-d]pyridazin-7-amine]
